Experimental data from PubChem BioAssay AID1259407 (Chemical Carcinogenesis Research Information System (CCRIS), 2018).
Calls of active or inactive are those of the source. The rule behind the calls is not given here.

Tested on: CCRIS mutagenicity, Ames/micronucleus/aberration tests
Test: CCRIS mutagenicity studies
[1] = Test System: AMES SALMONELLA TYPHIMURIUM, Strain/Indicator: TA97, Metabolic Activation: NONE, Method: PREINCUBATION
[2] = Test System: AMES SALMONELLA TYPHIMURIUM, Strain/Indicator: TA98, Metabolic Activation: HAMSTER, LIVER, S-9, AROCLOR 1254 (10%), Method: PREINCUBATION
[3] = Test System: AMES SALMONELLA TYPHIMURIUM, Strain/Indicator: TA98, Metabolic Activation: NONE, Method: PREINCUBATION
[4] = Test System: AMES SALMONELLA TYPHIMURIUM, Strain/Indicator: TA98, Metabolic Activation: RAT, LIVER, S-9, AROCLOR 1254 (10%), Method: PREINCUBATION
[5] = Test System: AMES SALMONELLA TYPHIMURIUM, Strain/Indicator: TA100, Metabolic Activation: HAMSTER, LIVER, S-9, AROCLOR 1254 (10%), Method: PREINCUBATION
[6] = Test System: AMES SALMONELLA TYPHIMURIUM, Strain/Indicator: TA100, Metabolic Activation: NONE, Method: PREINCUBATION
[7] = Test System: AMES SALMONELLA TYPHIMURIUM, Strain/Indicator: TA100, Metabolic Activation: RAT, LIVER, S-9, AROCLOR 1254 (10%), Method: PREINCUBATION
[8] = Test System: AMES SALMONELLA TYPHIMURIUM, Strain/Indicator: TA1535, Metabolic Activation: HAMSTER, LIVER, S-9, AROCLOR 1254 (10%), Method: PREINCUBATION
[9] = Test System: AMES SALMONELLA TYPHIMURIUM, Strain/Indicator: TA1535, Metabolic Activation: NONE, Method: PREINCUBATION
[10] = Test System: AMES SALMONELLA TYPHIMURIUM, Strain/Indicator: TA1535, Metabolic Activation: RAT, LIVER, S-9, AROCLOR 1254 (10%), Method: PREINCUBATION
[11] = Test System: AMES SALMONELLA TYPHIMURIUM, Strain/Indicator: TA1537, Metabolic Activation: NONE, Method: PREINCUBATION

Measured: mutagenic call

c1ccc(N(c2ccccc2)c2ccccc2)cc1
inactive: Test System: AMES SALMONELLA TYPHIMURIUM, Strain/Indicator: TA97, Metabolic Activation: HAMSTER, LIVER, S-9, AROCLOR 1254 (10 OR 30%), Method: PREINCUBATION inactive; negative | [1] inactive; negative | Test System: AMES SALMONELLA TYPHIMURIUM, Strain/Indicator: TA97, Metabolic Activation: RAT, LIVER, S-9, AROCLOR 1254 (10 OR 30%), Method: PREINCUBATION inactive; negative | [2] inactive; negative | Test System: AMES SALMONELLA TYPHIMURIUM, Strain/Indicator: TA98, Metabolic Activation: HAMSTER, LIVER, S-9, AROCLOR 1254 (10 OR 30%), Method: PREINCUBATION inactive; negative | [3] inactive; negative | [4] inactive; negative | Test System: AMES SALMONELLA TYPHIMURIUM, Strain/Indicator: TA98, Metabolic Activation: RAT, LIVER, S-9, AROCLOR 1254 (10 OR 30%), Method: PREINCUBATION inactive; negative | [5] inactive; negative | Test System: AMES SALMONELLA TYPHIMURIUM, Strain/Indicator: TA100, Metabolic Activation: HAMSTER, LIVER, S-9, AROCLOR 1254 (10 OR 30%), Method: PREINCUBATION inactive; negative | [6] inactive; negative | [7] inactive; negative | Test System: AMES SALMONELLA TYPHIMURIUM, Strain/Indicator: TA100, Metabolic Activation: RAT, LIVER, S-9, AROCLOR 1254 (10 OR 30%), Method: PREINCUBATION inactive; negative | [8] inactive; negative | Test System: AMES SALMONELLA TYPHIMURIUM, Strain/Indicator: TA1535, Metabolic Activation: HAMSTER, LIVER, S-9, AROCLOR 1254 (10 OR 30%), Method: PREINCUBATION inactive; negative | [9] inactive; negative | [10] inactive; negative | Test System: AMES SALMONELLA TYPHIMURIUM, Strain/Indicator: TA1535, Metabolic Activation: RAT, LIVER, S-9, AROCLOR 1254 (10 OR 30%), Method: PREINCUBATION inactive; negative | Test System: AMES SALMONELLA TYPHIMURIUM, Strain/Indicator: TA1537, Metabolic Activation: HAMSTER, LIVER, S-9, AROCLOR 1254 (10%), Method: PREINCUBATION inactive; negative | Test System: AMES SALMONELLA TYPHIMURIUM, Strain/Indicator: TA1537, Metabolic Activation: HAMSTER, LIVER, S-9, AROCLOR 1254 (10 OR 30%), Method: PREINCUBATION inactive; negative | [11] inactive; negative | Test System: AMES SALMONELLA TYPHIMURIUM, Strain/Indicator: TA1537, Metabolic Activation: RAT, LIVER, S-9, AROCLOR 1254 (10%), Method: PREINCUBATION inactive; negative | Test System: AMES SALMONELLA TYPHIMURIUM, Strain/Indicator: TA1537, Metabolic Activation: RAT, LIVER, S-9, AROCLOR 1254 (10 OR 30%), Method: PREINCUBATION inactive; negative

C=CC(C)C#N (configuration not stated)
inactive: Test System: AMES SALMONELLA TYPHIMURIUM, Strain/Indicator: TA97, Metabolic Activation: HAMSTER, LIVER, S-9, AROCLOR 1254 (5 OR 30%), Method: PREINCUBATION inactive; negative | Test System: AMES SALMONELLA TYPHIMURIUM, Strain/Indicator: TA97, Metabolic Activation: HAMSTER, LIVER, S-9, AROCLOR 1254 (10%), Method: PREINCUBATION inactive; negative | [1] inactive; negative | Test System: AMES SALMONELLA TYPHIMURIUM, Strain/Indicator: TA97, Metabolic Activation: RAT, LIVER, S-9, AROCLOR 1254 (10%), Method: PREINCUBATION inactive; negative | Test System: AMES SALMONELLA TYPHIMURIUM, Strain/Indicator: TA97, Metabolic Activation: RAT, LIVER, S-9, AROCLOR 1254 (30%), Method: PREINCUBATION inactive; negative | [2] inactive; negative | Test System: AMES SALMONELLA TYPHIMURIUM, Strain/Indicator: TA98, Metabolic Activation: HAMSTER, LIVER, S-9, AROCLOR 1254 (30%), Method: PREINCUBATION inactive; negative | [3] inactive; negative | [4] inactive; negative | Test System: AMES SALMONELLA TYPHIMURIUM, Strain/Indicator: TA98, Metabolic Activation: RAT, LIVER, S-9, AROCLOR 1254 (30%), Method: PREINCUBATION inactive; negative | [5] inactive; negative | Test System: AMES SALMONELLA TYPHIMURIUM, Strain/Indicator: TA100, Metabolic Activation: HAMSTER, LIVER, S-9, AROCLOR 1254 (30%), Method: PREINCUBATION inactive; negative | [6] inactive; negative | [7] inactive; negative | Test System: AMES SALMONELLA TYPHIMURIUM, Strain/Indicator: TA100, Metabolic Activation: RAT, LIVER, S-9, AROCLOR 1254 (30%), Method: PREINCUBATION inactive; negative | [8] inactive; negative | Test System: AMES SALMONELLA TYPHIMURIUM, Strain/Indicator: TA1535, Metabolic Activation: HAMSTER, LIVER, S-9, AROCLOR 1254 (30%), Method: PREINCUBATION inactive; negative | [9] inactive; negative | [10] inactive; negative | Test System: AMES SALMONELLA TYPHIMURIUM, Strain/Indicator: TA1535, Metabolic Activation: RAT, LIVER, S-9, AROCLOR 1254 (30%), Method: PREINCUBATION inactive; negative | Test System: AMES SALMONELLA TYPHIMURIUM, Strain/Indicator: TA1537, Metabolic Activation: HAMSTER, LIVER, S-9, AROCLOR 1254 (30%), Method: PREINCUBATION inactive; negative | [11] inactive; negative | Test System: AMES SALMONELLA TYPHIMURIUM, Strain/Indicator: TA1537, Metabolic Activation: RAT, LIVER, S-9, AROCLOR 1254 (30%), Method: PREINCUBATION inactive; negative

Cc1c[nH]c(=O)[nH]c1=O
inactive: Test System: CHINESE HAMSTER V-79, Strain/Indicator: V-79 (HPRT)/6-THIOGUANINE, Metabolic Activation: NONE, Method: STANDARD PLATE inactive; negative
